Measured values reported in US20080045506A1 (GLAXO GROUP LIMITED, priority 2004, published 2008).
Counter-ions that a name gives are not always drawn.

molecular target: T1, histamine H3 receptor (Homo sapiens, UniProt Q9Y5N1); experiment: Histamine H3 functional antagonist assay (method A); format: biochemical; settings: [35S]-GTPγS SPA, membrane prepared from cultured H3 cells, histamine at EC80, averages of a number of experiments, read-out: functional pKi (fpKi), antagonism (converted)
T1 construct: expressed in transfected cells; host or cells: CHO K1 cells (pSwitch/pGene GeneSwitch system, mifepristone-induced), clone 3H3; membranes
T1 sequence (Q9Y5N1 whole entry): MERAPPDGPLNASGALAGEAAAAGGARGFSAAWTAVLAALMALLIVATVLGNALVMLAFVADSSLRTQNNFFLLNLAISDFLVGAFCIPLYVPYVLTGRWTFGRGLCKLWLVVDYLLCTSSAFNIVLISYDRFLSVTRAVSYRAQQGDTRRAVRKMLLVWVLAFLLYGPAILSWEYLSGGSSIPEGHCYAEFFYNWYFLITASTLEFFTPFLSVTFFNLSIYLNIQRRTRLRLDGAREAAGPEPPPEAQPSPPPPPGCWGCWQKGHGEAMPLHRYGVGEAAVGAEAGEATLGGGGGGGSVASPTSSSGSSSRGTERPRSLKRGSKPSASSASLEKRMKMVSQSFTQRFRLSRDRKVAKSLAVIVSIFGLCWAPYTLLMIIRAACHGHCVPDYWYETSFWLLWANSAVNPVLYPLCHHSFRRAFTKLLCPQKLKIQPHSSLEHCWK
Text: (§1) A membrane preparation containing histamine H3 receptors may be prepared in accordance with the following procedures:
(§2) (i) Generation of Histamine H3 Cell Line
(§3) DNA encoding the human histamine H3 gene (Huvar, A. et al. (1999) Mol. Pharmacol. 55(6), 1101-1107) was cloned into a holding vector, pcDNA3.1 TOPO (InVitrogen) and its cDNA was isolated from this vector by restriction digestion of plasmid DNA with the enzymes BamH1 and Not-1 and ligated into the inducible expression vector pGene (InVitrogen) digested with the same enzymes. The GeneSwitch™ system (a system where in transgene expression is switched off in the absence of an inducer and switched on in the presence of an inducer) was performed as described in U.S. Pat. Nos. 5,364,791; 5,874,534; and 5,935,934. Ligated DNA was transformed into competent DH5α E. coli host bacterial cells and plated onto Luria Broth (LB) agar containing Zeocin™ (an antibiotic which allows the selection of cells expressing the sh ble gene which is present on pGene and pSwitch) at 50 μg ml^−1. Colonies containing the re-ligated plasmid were identified by restriction analysis. DNA for transfection into mammalian cells was prepared from 250 ml cultures of the host bacterium containing the pGeneH3 plasmid and isolated using a DNA preparation kit (Qiagen Midi-Prep) as per manufacturers guidelines (Qiagen).
(§4) CHO K1 cells previously transfected with the pSwitch regulatory plasmid (InVitrogen) were seeded at 2×10e6 cells per T75 flask in Complete Medium, containing Hams F12 (GIBCOBRL, Life Technologies) medium supplemented with 10% v/v dialysed foetal bovine serum, L-glutamine, and hygromycin (100 μg ml^−1), 24 hours prior to use. Plasmid DNA was transfected into the cells using Lipofectamine plus according to the manufacturers guidelines (InVitrogen). 48 hours post transfection cells were placed into complete medium supplemented with 500 μg ml^−1 Zeocin™.
(§5) 10-14 days post selection 10 nM Mifepristone (InVitrogen), was added to the culture medium to induce the expression of the receptor. 18 hours post induction cells were detached from the flask using ethylenediamine tetra-acetic acid (EDTA; 1:5000; InVitrogen), following several washes with phosphate buffered saline pH 7.4 and resuspended in Sorting Medium containing Minimum Essential Medium (MEM), without phenol red, and supplemented with Earles salts and 3% Foetal Clone II (Hyclone). Approximately 1×10e7 cells were examined for receptor expression by staining with a rabbit polyclonal antibody, 4a, raised against the N-terminal domain of the histamine H3 receptor, incubated on ice for 60 minutes, followed by two washes in sorting medium. Receptor bound antibody was detected by incubation of the cells for 60 minutes on ice with a goat anti rabbit antibody, conjugated with Alexa 488 fluorescence marker (Molecular Probes). Following two further washes with Sorting Medium, cells were filtered through a 50 μm Filcon™ (BD Biosciences) and then analysed on a FACS Vantage SE Flow Cytometer fitted with an Automatic Cell Deposition Unit. Control cells were non-induced cells treated in a similar manner. Positively stained cells were sorted as single cells into 96-well plates, containing Complete Medium containing 500 μg ml^−1 Zeocin™ and allowed to expand before reanalysis for receptor expression via antibody and ligand binding studies. One clone, 3H3, was selected for membrane preparation.
(ii) Membrane Preparation from Cultured Cells […]

Ki	SMILES
< 0.316 nM	O=C(C1CCN(c2ccnc(C(F)(F)F)c2)C1)N1CCCN(C2CCC2)CC1 (racemic) [Example E23, (R,S)-1-Cyclobutyl-4-({1-[2-(trifluoromethyl)-4-pyridinyl]-3-pyrrolidinyl}carbonyl)hexahydro-1H-1,4-diazepine hydrochloride]
< 0.316 nM	O=C(C1CCN(c2ccc(C(F)(F)F)nc2)C1)N1CCCN(C2CCC2)CC1 (racemic) [Example E17, (R,S)-1-Cyclobutyl-4-({1-[6-(trifluoromethyl)-3-pyridinyl]-3-pyrrolidinyl}carbonyl)hexahydro-1H-1,4-diazepine]
< 10 nM	CC(C)N1CCCN(C(=O)C2CCN(c3ccc(C(F)(F)F)nc3)C2)CC1 (racemic) [Example E22, (R,S)-1-(1-Methylethyl)-4-({(1-[6-(trifluoromethyl)-3-pyridinyl]-3-pyrrolidinyl}carbonyl)hexahydro-1H-1,4-diazepine hydrochloride]
< 0.316 nM	O=C([C@@H]1CCN(c2ccc(C(F)(F)F)nc2)C1)N1CCCN(C2CCC2)CC1 (single isomer, unassigned) [Example E17A, hydrochloride]
< 0.316 nM	O=C([C@H]1CCN(c2ccc(C(F)(F)F)nc2)C1)N1CCCN(C2CCC2)CC1 (single isomer, unassigned) [Example E17B, hydrochloride]

molecular target: T1, histamine H3 receptor; experiment: Histamine H3 functional antagonist assay (method B); format: biochemical; settings: [35S]-GTPγS SPA, membrane prepared from cultured H3 cells, histamine at EC80, averages of a number of experiments, read-out: functional pKi (fpKi), antagonism (converted)
Text: as §1, §2, §3, §4, §5
(ii) Membrane Preparation from Cultured Cells
All steps of the protocol are carried out at 4° C. and with pre-cooled reagents. The cell pellet is resuspended in 10 volumes of homogenisation buffer (50 mM N-2-hydroxyethylpiperazine-N′-2-ethanesulfonic acid (HEPES), 1 mM ethylenediamine tetra-acetic acid (EDTA), pH 7.4 with KOH, supplemented with 10e-6M leupeptin (acetyl-leucyl-leucyl-arginal; Sigma L2884), 25 μg/ml bacitracin (Sigma B0125), 1 mM phenylmethylsulfonyl fluoride (PMSF) and 2×10e-6M pepstain A (Sigma)). […]

Ki	SMILES
≤ 0.316 nM	O=C(C1CCN(c2ccc(C(F)(F)F)nc2)C1)N1CCCN(C2CCC2)CC1 (racemic) [Example E17, (R,S)-1-Cyclobutyl-4-({1-[6-(trifluoromethyl)-3-pyridinyl]-3-pyrrolidinyl}carbonyl)hexahydro-1H-1,4-diazepine]
≤ 0.316 nM	Cc1noc(-c2ccc(N3CC[C@H](C(=O)N4CCCN(C5CCC5)CC4)C3)c(F)c2)n1 (single isomer, unassigned) [Example E20B, hydrochloride]
≤ 0.316 nM	Cc1noc(-c2ccc(N3CC[C@H](C(=O)N4CCCN(C5CCC5)CC4)C3)cc2)n1 (single isomer, unassigned) [Example E18B, hydrochloride]
≤ 0.316 nM	CC(=O)c1ccc(N2CC[C@H](C(=O)N3CCCN(CC4CC4)CC3)C2)cc1 [Example E10, 1-[4-((3S)-3-{[4-(Cyclopropylmethyl)hexahydro-1H-1,4-diazepin-1-yl]carbonyl}-1-pyrrolidinyl)phenyl]ethanone]
≤ 0.316 nM	Cc1noc(-c2ccc(N3CC[C@H](C(=O)N4CCN(C5CCC5)CC4)C3)cn2)n1 [Example E51, 1-Cyclobutyl-4-({(3S)-1-[6-(3-methyl-1,2,4-oxadiazol-5-yl)-3-pyridinyl]-3-pyrrolidinyl}carbonyl)piperazine hydrochloride]
≤ 0.316 nM	Cc1noc(-c2ccc(N3CC[C@H](C(=O)N4CCCN(CC5CC5)CC4)C3)cc2)n1 [Example E11, 1-(Cyclopropylmethyl)-4-({(3S)-1-[4-(3-methyl-1,2,4-oxadiazol-5-yl)phenyl]-3-pyrrolidinyl}carbonyl)hexahydro-1H-1,4-diazepine]
≤ 0.316 nM	CCc1noc(-c2ccc(N3CC[C@H](C(=O)N4CCCN(C(C)C)CC4)C3)cc2)n1 [Example E48, 1-({(3S)-1-[4-(3-Ethyl-1,2,4-oxadiazol-5-yl)phenyl]-3-pyrrolidinyl}carbonyl)-4-(1-methylethyl)hexahydro-1H-1,4-diazepine hydrochloride]
≤ 0.316 nM	CCC(CC)N1CCN(C(=O)[C@H]2CCN(c3ccc(C(C)=O)cc3)C2)CC1 [Example E8, 1-[4-((3S)-3-{[4-(1-Ethylpropyl)-1-piperazinyl]carbonyl}-1-pyrrolidinyl)phenyl]ethanone]
< 10 nM	Cc1noc(-c2ccc(N3CC[C@@H](C(=O)N4CCCN(C5CCC5)CC4)C3)c(F)c2)n1 (single isomer, unassigned) [Example E20A, hydrochloride]
≤ 0.316 nM	Cc1nc(-c2ccc(N3CC[C@H](C(=O)N4CCN(C(C)C)CC4)C3)cc2)no1 [Example E33, 1-(1-Methylethyl)-4-({(3S)-1-[4-(5-methyl-1,2,4-oxadiazol-3-yl)phenyl]-3-pyrrolidinyl}carbonyl)piperazine]
≤ 0.316 nM	Cc1noc(-c2ccc(N3CC[C@H](C(=O)N4CCN(C(C)C)CC4)C3)c(F)c2)n1 [Example E25, 1-({(3S)-1-[2-Fluoro-4-(3-methyl-1,2,4-oxadiazol-5-yl)phenyl]-3-pyrrolidinyl}carbonyl)-4-(1-methylethyl)piperazine]
≤ 0.316 nM	CC(=O)c1ccc(N2CC[C@H](C(=O)N3CCCN(C(C)C)CC3)C2)cc1 [Example E27, 1-[4-((3S)-3-{[4-(1-Methylethyl)hexahydro-1H-1,4-diazepin-1-yl]carbonyl}-1-pyrrolidinyl)phenyl]ethanone]
≤ 0.316 nM	Cc1noc(-c2ccc(N3CC[C@H](C(=O)N4CCCN(C(C)C)CC4)C3)cn2)n1 [Example E53, 1-(1-Methylethyl)-4-({(3S)-1-[6-(3-methyl-1,2,4-oxadiazol-5-yl)-3-pyridinyl]-3-pyrrolidinyl}carbonyl)hexahydro-1H-1,4-diazepine hydrochloride]
≤ 0.316 nM	Cc1noc(-c2ccc(N3CC[C@H](C(=O)N4CCN(C(C)C)[C@@H](C)C4)C3)cc2)n1 [Example E6, (2S)-2-Methyl-1-(1-methylethyl)-4-({(3S)-1-[4-(3-methyl-1,2,4-oxadiazol-5-yl)phenyl]-3-pyrrolidinyl}carbonyl)piperazine]
≤ 0.316 nM	Cc1ncc(-c2ccc(N3CC[C@H](C(=O)N4CCN(C(C)C)CC4)C3)cc2)o1 [Example E34, 1-(1-Methylethyl)-4-({(3S)-1-[4-(2-methyl-1,3-oxazol-5-yl)phenyl]-3-pyrrolidinyl}carbonyl)piperazine]
≤ 0.316 nM	O=C([C@H]1CCN(c2ccc(C(F)(F)F)nc2)C1)N1CCN(C2CCC2)CC1 [Example E12, 1-Cyclobutyl-4-({(3S)-1-[6-(trifluoromethyl)-3-pyridinyl]-3-pyrrolidinyl}carbonyl)piperazine]
≤ 0.316 nM	CC(=O)c1ccc(N2CC[C@H](C(=O)N3CCN(C(C)C)[C@@H](C)C3)C2)cc1 [Example E5, 1-[4-((3S)-3-{[(3S)-3-Methyl-4-(1-methylethyl)-1-piperazinyl]carbonyl}-1-pyrrolidinyl)phenyl]ethanone]
